Assay results from patent publication US20100004316A1, “MULTIFUNCTIONAL CARRIERS FOR THE DELIVERY OF NUCLEIC ACIDS AND METHODS OF USE THEREOF” (UNIVERSITY OF UTAH RESEARCH FOUNDATION, priority 2006, published 2010).

Experiments:
[1] = test system: rat red blood cells; assay: Hemolysis assay at different pHs; assay type: cell-based; conditions: for hemolysis: pH 7.4, 6.5 and 5.4 (all cases); for hemolytic activity: 8.3 μM
Protocol: Hemolysis assay. THCO (16.7 μM), DOTAP (16.7 μM) and Triton X-100 (1%, w/v) were dissolved in phosphate buffered saline (PBS) at a starting pH of 7.4, 6.5, or 5.4 as stock solutions. A rat was sacrificed and blood was obtained by cardiac puncture. Erythrocytes (RBC) were isolated by centrifugation at 1500 g for 10 min at 4° C. The cell pellet was resuspended into a 2% (w/v) RBC solution with prechilled PBS and then seeded (100 μL) into a 96-well plate. 100 μL of testing samples were added to RBC solutions and the plate was incubated for 1 h at 37° C. The absorbance of the supernatant from each sample was measured at 550 nm using a micro-plate reader.
Hemolysis assay. The assays were performed using the techniques described above. The pH sensitive amphiphilic cell membrane disruption of the MFCs was evaluated by hemolysis assay with rat red blood cells at different pHs. […] Generally, all MFCs had lower hemolytic activity at pH 7.4 than at pH 6.5 and 5.4.

[2] = test system: U87-Luc cells; assay: Luciferase gene silencing with anti-luciferase siRNA in U87-Luc cells; assay type: cell-based
Protocol: THCO-mediated delivery of siRNA targeting a luciferase reporter gene. U87-Luc cells were seeded 24 hours prior to transfection into a 96-well plate at a density of 5000 cells/well. At the time of siRNA transfection, the medium in each well was replaced with fresh serum-free medium. 20 nM anti-luciferase siRNA or non-specific siRNA was complexed with THCO or Transfast™ or DOTAP and incubated for 30 min before use. The transfection by Transfast or DOTAP was performed according to the manufacture's instruction. Complexes were incubated with the cells for 4 hours at 37° C. The medium was then replaced with 100 μL of fresh complete medium and cells were incubated for additional 44 hours. All the transfection tests were performed in triplicate wells. After the incubation, cells were washed with pre-warmed PBS and treated with 200 μL cell lysis buffer and then subjected to a freezing-thawing cycle. Cellular debris was removed by centrifugation at 14,000 g for 5 minutes. The luciferase activity in cell lysate (20 μL) was measured using a luciferase assay kit (100 μL luciferase assay buffer) on a luminometer for 10 seconds (Lumat 9605, EG&G Wallac). The gene silencing efficiency was normalized against the luciferase expression of untreated cells. The siRNA delivery efficiency was also similarly evaluated in 10% FBS medium.
G. In vitro delivery of nucleic acids by MFCs MFC-mediated in vitro gene silencing with siRNA. U87-luc cells with constitutive expression of firefly luciferase were maintained in minimal essential medium (ATCC) containing 10% FBS, G418 (300 μg/mL), streptomycin (100 μg/mL) and penicillin (100 units/mL). U87-Luc cells were seeded 24 hours prior to transfection into a 96-well plate at a density of 5000 cells/well. At the time of siRNA transfection, the medium in each well was replaced with fresh serum-free medium. Anti-luciferase siRNA was complexed with the MFC, TransFast or DOTAP and incubated for 30 min before use. Complexes were incubated with the cells for 4 hours at 37° C. The medium was then replaced with 100 μL of fresh complete medium and cells were incubated for an additional 44 hours. The cells were then washed with pre-warmed PBS, treated with 200 μL cell lysis buffer and subjected to a freezing-thawing cycle. Cellular debris was removed by centrifugation at 14,000 g for 5 minutes. The luciferase activity in cell lysate (20 μL) was measured using a luciferase assay kit (100 μL luciferase assay buffer) on a luminometer for 10 seconds (Lumat 9605, EG&G Wallac). The gene silencing efficiency was normalized against the luciferase expression of untreated cells.

[3] = test system: U87-Luc cells; assay: Cytotoxicity of MFC/siRNA complexes (MTT); assay type: cell-based; conditions: siRNA complexes, 100 nM siRNA
Protocol: Cytotoxicity of MFC/siRNA complexes. U87-luc cells were incubated with MFC/siRNA complexes of different carriers according to the protocol described above. MTT in PBS (5 mg/mL, 25 μL) was added to each well after incubation and cells were incubated for another 2 hours. After cell culture medium was removed, 200 μL DMSO was added to each well and cells were incubated at 37° C. for 5 min. The optical absorption was measured at 570 nm using a micro-plate reader (Model 550, Bio-Rad Lab. Hercules, Calif.). The relative cell viability was calculated with the equation ([Abs]sample-[Abs]blank)/([Abs]control-[Abs]blank)×100%.

[4] = test system: U87-luc xenograft; assay: In vivo luciferase knockdown with anti-luc siRNA complexes, bioluminescence imaging; design: species or system mice; conditions: 50 μg anti-luciferase siRNA i.p.
Protocol: Animal tumor model. U87 cells with stably expression of luciferase were collected and resuspended with medium/matrigel mixture (v/v=l/l). 100 μL of cell suspension containing 2 million cells were injected subcutaneously in the right flanks of the mice.
Carriers. EHCO was selected for the study. DOTAP is a commercial available transfection agent that has been used to deliver siRNA in vivo and was used as a control carrier. siRNAs. Anti-Luciferase siRNA was used to knockdown luciferase expression in mice so as to noninvasively detect gene silencing efficiency by bioluminescence imaging. […] The sequence of antisense is 5′-[…]dTdT-3′ and that of sense is 3′-dTd[…]-5′. siRNA targeting HIF was provided Huntsman Cancer Institute, University of Utah. The sequence of antisense is 5′-[…]dTdT-3′ and that of sense is 3′-dTdT […]-5′.
Administration of Anti-Luc siRNA complexes and Luciferase mouse imaging. Bioluminescence imaging of mice were taken one day before the administration of the anti-luciferase complexes. […] Images were quantified using LivingImage software (Xenogen). […] The luminescence signal intensity on the day before the mice received the anti-luc complexes were set as 100% and the subsequent luciferase expression level in mice after siRNA treatments were normalized to the percentage relative to those at day 0.

[5] = Particle size of MFC/siRNA complexes by dynamic light scattering
Protocol: Particle Size Analysis. Samples were prepared by mixing 5.0 μg of plasmid DNA or siRNA with appropriate amount of materials in dust-free water and analyzed using a Brookhaven Instruments BI-200SM system equipped with a 5 mW helium neon laser with a wavelength output of 633 nm. The effective diameter and population distribution were computed from the diffusion coefficient using functions supplied by the instrument. Measurements were made at 25° C. at an angle of 90° and each sample was analyzed in triplicate.
Formation and size measurement of MFC/siRNA nanoparticles. MFC/siRNA nanoparticulate complexes were prepared and characterized using the techniques described above. The complexation of the polymerizable MFCs with siRNA and formation of nanoparticles of the complexes were investigated by dynamic light scattering. EHCO was first used to study the complexation with siRNA and the impact of N/P ratios on the complexation and formation of nanoparticles. […] The particle size of siRNA complexes with other polymerizable surfactants was measured at the N/P ratios of 8 and 10 based on the observation with EHCO.

[6] = test system: U87 cells; assay: MTT cytotoxicity assay in U87 cells; assay type: cell-based; conditions: concentration of 250 μg/mL, 24 h
Protocol: In another study, U87 cells were seeded in a 96-well plate 24 h before the assay at a density of 10,000 cells/well. The cells were incubated with 200 μL of medium containing THCO at different concentrations and incubate for 24 h. Then 25 μL MTT solution in PBS was added and cells were incubated for another 2 hours. After removing media, 200 μL of DMSO was added to the wells and cells were incubated at 37° C. for 5 min. The optical densities were measured at 570 nm using a micro-plate reader (Model 550, Bio-Rad Lab. Hercules, Calif.). The relative cell viability was calculated as described above. […] The viability of U87 cells incubated with THCO was 79±8% at a concentration of 250 μg/mL as determined the MTT assay, slightly higher than that of DOTAP (72±4%) (FIG. 8).

Triton X-100 [reference compound]
hemolysis [1]: complete hemolysis

CCCCCCCCC=CCCCCCCCC(=O)NC(CS)C(=O)NC(Cc1cnc[nH]1)C(=O)NCCNC(=O)CCN(CCN)CCC(=O)NCCNC(=O)C(Cc1cnc[nH]1)NC(=O)C(CS)NC(=O)CCCCCCCC=CCCCCCCCC (centres unmarked) [EHCO, (1-aminoethyl)imino-bis[N-(oleicyl-cysteinyl-histinyl-1-aminoethyl)propion-amide]]
hemolytic activity ([1]; pH 6.5, PBS): negligible hemolysis | hemolytic activity ([1]; pH 7.4, PBS): negligible hemolysis | luciferase silencing (transfection) efficiency ([2]; 20 nM siRNA, MFCs at N/P ratio of 10, FIG. 21b): 74.5±1.0% | knockdown of luciferase expression ([2]; 100 nM siRNA, MFCs at N/P ratio of 10, FIG. 21a): 88.4±3.1% | cell viability [3]: 86.7±8.3% | reduction of luciferase expression in the tumor ([4]; after two treatments): more than 50% | particle size of siRNA complexes (diameter) ([5]; N/P ratio of 0.5, incubated 30 minutes): approximately 200 nm | particle size of siRNA complexes ([5]; N/P ratio of 4): about 3 μm | particle size of siRNA complexes ([5]; N/P ratio of 6): approximately 240 nm | particle size of siRNA complexes (diameter) ([5]; N/P ratio of 8, dust free water): approximately 200 nm | particle size of siRNA complexes ([5]; N/P ratio of 10): ~151 nm

N-(2,3-dioleoyloxy-1-propyl)trimethylammonium methyl sulfate [DOTAP, reference compound]
hemolysis [1]: Little hemolysis | viability of U87 cells [6]: 72±4% | gene silencing efficiency ([2]; 20 nM siRNA, serum free medium, THCO N/P=8, FIG. 12): 47.1±3.8% | gene silencing efficiency ([2]; 20 nM siRNA, serum-free medium, THCO at N/P ratios from 4 to 16): 47% | effect on luciferase expression in the tumor ([4]; two treatments): did not have significant effect after the second treatment
